Data reported in patent US9346815B2, “5-chloro-2-difluoromethoxyphenyl pyrazolopyrimidine compounds, compositions and methods of use thereof” (Genentech, Inc., priority 2014, dated 2016).
Where a name gives a salt, the structure may show the parent alone.

Key:
[1] = target: isolated recombinant JAK1 kinase domain (Homo sapiens (Human), UniProt P23458); assay: JAK1 enzyme assay (Caliper LabChip, peptide phosphorylation); format: biochemical; conditions: isolated recombinant JAK1 kinase domain, 25 μM ATP
isolated recombinant JAK1 kinase domain, sequence (P23458 875-1153): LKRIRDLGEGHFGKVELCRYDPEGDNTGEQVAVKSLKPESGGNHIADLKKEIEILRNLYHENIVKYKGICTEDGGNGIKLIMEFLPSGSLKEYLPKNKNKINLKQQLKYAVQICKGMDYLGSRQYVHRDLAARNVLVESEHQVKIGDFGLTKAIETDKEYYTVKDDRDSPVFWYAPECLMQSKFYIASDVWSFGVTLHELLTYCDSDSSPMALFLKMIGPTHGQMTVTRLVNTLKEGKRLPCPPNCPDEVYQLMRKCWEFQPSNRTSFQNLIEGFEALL

[2] = system: JAK1-dependent STAT6 phosphorylation downstream of IL-13 stimulation in BEAS-2B human bronchial epithelial cells; assay: JAK1 pathway assay in BEAS-2B cells (IL-13-pSTAT6, MSD); format: cell-based; conditions: read-out: IL13-pSTAT6 EC50 (uM)_BEAS-2B
Method: JAK1 Pathway Assay in Cell Lines was Carried Out as Follows:
Inhibitor potency (EC50) was determined in cell-based assays designed to measure JAK1 dependent STAT phosphorylation.
In one assay approach, TF-1 human erythroleukemia cells obtained from the American Type Culture Collection (ATCC; Manassas, Va.) were used to measure JAK1-dependent STAT6 phosphorylation downstream of IL-13 stimulation. Prior to use in the assays, TF-1 cells were starved of GM-CSF overnight in OptiMEM medium (Life Technologies, Grand Island, N.Y.) supplemented with 0.5% charcoal/dextran stripped fetal bovine serum (FBS), 0.1 mM non-essential amino acids (NEAA), and 1 mM sodium pyruvate. The assays were run in 384-well plates in serum-free OptiMEM medium using 300,000 cells per well. In a second assay approach, BEAS-2B human bronchial epithelial cells obtained from ATCC were plated at 100,000 cells per well of a 96-well plate one day prior to the experiment. The BEAS-2B assay was run in complete growth medium (bronchial epithelial basal medium plus bulletkit; Lonza; Basel, Switzerland).
Test compounds were serially diluted 1:2 in DMSO and then diluted 1:50 in medium just before use. Diluted compounds were added to the cells, for a final DMSO concentration of 0.2%, and incubated for 30 min (for the TF-1 assay) or 1 hr (for the BEAS-2B assay) at 37° C. Then, cells were stimulated with human recombinant cytokine at their respective EC90 concentrations, as previously determined for each individual lot. Cells were stimulated with IL-13 (R&D Systems, Minneapolis, Minn.) for 15 min at 37° C. The TF-1 cell reactions were stopped by the direct addition of 10× lysis buffer (Cell Signaling Technologies, Danvers, Mass.), whereas the BEAS-2B cell incubations were halted by the removal of medium and addition of 1× lysis buffer. The resultant samples were frozen in the plates at −80° C. Compound mediated inhibition of STAT6 phosphorylation was measured in the cell lysates using MesoScale Discovery (MSD) technology (Gaithersburg, Md.).

[3] = target: isolated recombinant JAK2 kinase domain (Homo sapiens (Human), UniProt O60674); assay: JAK2 enzyme assay (Caliper LabChip, peptide phosphorylation); format: biochemical; conditions: 25 μM ATP
isolated recombinant JAK2 kinase domain, sequence (O60674 849-1124): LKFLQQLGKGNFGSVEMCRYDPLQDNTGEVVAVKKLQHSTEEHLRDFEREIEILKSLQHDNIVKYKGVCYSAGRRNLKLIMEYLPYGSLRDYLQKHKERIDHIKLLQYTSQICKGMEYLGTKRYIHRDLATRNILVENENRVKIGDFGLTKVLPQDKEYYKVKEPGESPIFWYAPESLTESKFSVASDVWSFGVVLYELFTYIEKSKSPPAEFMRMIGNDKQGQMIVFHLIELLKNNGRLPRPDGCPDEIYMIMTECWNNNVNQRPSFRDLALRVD

[4] = system: JAK1-dependent STAT6 phosphorylation downstream of IL-13 stimulation in TF-1 human erythroleukemia cells; assay: JAK1 pathway assay in TF-1 cells (IL-13-pSTAT6, MSD); format: cell-based; conditions: Homo sapiens, TF-1, TF-1 cells, read-out: IL13-pSTAT6 EC50_TF-1
Method in brief: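 Compound preincubation lasted 1 hr for BEAS-2B cells in complete growth medium and 30 min for GM-CSF-starved TF-1 cells in serum-free medium. EC50 values were determined.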

| SMILES | Ki [1] [nM] | EC50 [2] [µM] | Ki [3] [nM] | EC50 [4] [nM] |
| --- | --- | --- | --- | --- |
| O=C(Nc1cn(CC(O)CN2CCOCC2)nc1-c1cc(Cl)ccc1OC(F)F)c1cnn2cccnc12 (stereo not shown) [Example 403, N-(3-(5-chloro-2-(difluoromethoxy)phenyl)-1-(2-hydroxy-3-morpholinopropyl)-1H-pyrazol-4-yl)pyrazolo[1,5-a]pyrimidine-3-carboxamide] | 1.46 | 0.0283 | – | – |
| CNC(=O)[C@@H]1CCCN1CC1CCN(C(=O)Cn2cc(NC(=O)c3cnn4cccnc34)c(-c3cc(Cl)ccc3OC(F)F)n2)CC1 [Example 425, N-(3-(5-chloro-2-(difluoromethoxy)phenyl)-1-(2-(4-(((S)-2-(methyl-carbamoyl)pyrrolidin-1-yl)methyl)piperidin-1-yl)-2-oxoethyl)-1H-pyrazol-4-yl)pyrazolo[1,5-a]pyrimidine-3-carboxamide] | – | 0.0411 | – | – |
| COC(=O)CCN1CCN(C(=O)Cn2cc(NC(=O)c3cnn4cccnc34)c(-c3cc(Cl)ccc3OC(F)F)n2)CC1 [Example 331, methyl 3-[4-(2-[3-[5-chloro-2-(difluoromethoxy)phenyl]-4-[pyrazolo[1,5-a]pyrimidine-3-amido]-1H-pyrazol-1-yl]acetyl)piperazin-1-yl]propanoate] | 0.39 | 0.0176 | – | – |
| CN(C1CCN(C(=O)Cn2cc(NC(=O)c3cnn4cccnc34)c(-c3cc(Cl)ccc3OC(F)F)n2)CC1)[C@H]1CCOC1 [Example 442, N-(3-(5-chloro-2-(difluoromethoxy)phenyl)-1-(2-(4-(methyl((S)-tetrahydrofuran-3-yl)amino)piperidin-1-yl)-2-oxoethyl)-1H-pyrazol-4-yl)pyrazolo[1,5-a]pyrimidine-3-carboxamide] | 0.33 | 0.0194 | – | – |
| CN1CCN(C2CCN(C(=O)Cn3cc(NC(=O)c4cnn5cccnc45)c(-c4cc(Cl)ccc4OC(F)F)n3)CC2)CC1=O [Example 416, N-(3-(5-chloro-2-(difluoromethoxy)phenyl)-1-(2-(4-(4-methyl-3-oxopiperazin-1-yl)piperidin-1-yl)-2-oxoethyl)-1H-pyrazol-4-yl)pyrazolo[1,5-a]pyrimidine-3-carboxamide] | 0.41 | 0.0316 | – | – |
| CN(CC1(C)OCCO1)C1CCN(C(=O)Cn2cc(NC(=O)c3cnn4cccnc34)c(-c3cc(Cl)ccc3OC(F)F)n2)CC1 [Example 438, N-(3-(5-chloro-2-(difluoromethoxy)phenyl)-1-(2-(4-(methyl((2-methyl-1,3-dioxolan-2-yl)methyl)amino)piperidin-1-yl)-2-oxoethyl)-1H-pyrazol-4-yl)pyrazolo[1,5-a]pyrimidine-3-carboxamide] | 0.59 | 0.015 | – | – |
| O=C(Nc1cn(CC(=O)N2CCC(N3CC[S+]([O-])CC3)CC2)nc1-c1cc(Cl)ccc1OC(F)F)c1cnn2cccnc12 [Example 443] | – | 0.0663 | – | – |
| CCOC(=O)CCN1CCN(C(=O)Cn2cc(NC(=O)c3cnn4cccnc34)c(-c3cc(Cl)ccc3OC(F)F)n2)CC1 [Example 332] | – | 0.0692 | – | – |
| O=C(Nc1cn([C@H]2CNCC[C@@H]2O)nc1-c1cc(Cl)ccc1OC(F)F)c1cnn2cccnc12 [Example 361, N-[3-[5-chloro-2-(difluoromethoxy)phenyl]-1-[(3S,4S)-4-hydroxypiperidin-3-yl]-1H-pyrazol-4-yl]pyrazolo[1,5-a]pyrimidine-3-carboxamide] | – | 0.0273 | – | – |
| CN(C)C(=O)CNC1CCN(C(=O)Cn2cc(NC(=O)c3cnn4cccnc34)c(-c3cc(Cl)ccc3OC(F)F)n2)CC1 [Example 401, N-(3-(5-chloro-2-(difluoromethoxy)phenyl)-1-(2-(4-(2-(dimethylamino)-2-oxoethylamino)piperidin-1-yl)-2-oxoethyl)-1H-pyrazol-4-yl)pyrazolo[1,5-a]pyrimidine-3-carboxamide] | 0.75 | 0.152 | – | – |
| CN(CC1(C#N)CC1)C1CCN(C(=O)Cn2cc(NC(=O)c3cnn4cccnc34)c(-c3cc(Cl)ccc3OC(F)F)n2)CC1 [Example 467, N-(3-(5-chloro-2-(difluoromethoxy)phenyl)-1-(2-(4-(((1-cyanocyclopropyl)methyl) (methyl)amino)piperidin-1-yl)-2-oxoethyl)-1H-pyrazol-4-yl)pyrazolo[1,5-a]pyrimidine-3-carboxamide] | – | 0.0075 | – | – |
| CCN[C@@H](C)Cn1cc(NC(=O)c2cnn3cccnc23)c(-c2cc(Cl)ccc2OC(F)F)n1 [Example 371, N-[3-[5-chloro-2-(difluoromethoxy)phenyl]-1-[(2S)-2-(ethylamino)propyl]-1H-pyrazol-4-yl]pyrazolo[1,5-a]pyrimidine-3-carboxamide] | – | 0.0146 | – | – |
| CCOC(=O)CCCN1CCC(n2cc(NC(=O)c3c(N)nn4cccnc34)c(-c3cc(Cl)ccc3OC(F)F)n2)CC1 [Example 175, ethyl 4-[4-[4-[(2-aminopyrazolo[1,5-a]pyrimidine-3-carbonyl)amino]-3-[5-chloro-2-(difluoromethoxy)phenyl]pyrazol-1-yl]-1-piperidyl]butanoate] | 0.78 | – | 0.13 | 13.4 |
| O=C(Nc1cn(C2CCN(CCCN3CCOCC3)CC2)nc1-c1cc(Cl)ccc1OC(F)F)c1cnn2cccnc12 [Example 158, N-[3-[5-chloro-2-(difluoromethoxy)phenyl]-1-[1-(3-morpholinopropyl)-4-piperidyl]pyrazol-4-yl]pyrazolo[1,5-a]pyrimidine-3-carboxamide] | 2.12 | – | 0.26 | 38.8 |
| O=C(Nc1cn(CC(=O)N2CCC3(CCN(CC4CCN(C(=O)OCc5ccccc5)CC4)C3)CC2)nc1-c1cc(Cl)ccc1OC(F)F)c1cnn2cccnc12 [Example 226, benzyl 4-[[8-[2-[3-[5-chloro-2-(difluoromethoxy)phenyl]-4-(pyrazolo[1,5-a]pyrimidine-3-carbonylamino)pyrazol-1-yl]acetyl]-2,8-diazaspiro[4.5]decan-2-yl]methyl]piperidine-1-carboxylate] | 0.41 | – | 1.11 | 41.5 |
| CN1CCN(C(=O)c2ccc(-c3nc(-c4cc(Cl)ccc4OC(F)F)c(NC(=O)c4cnn5cccnc45)s3)cc2)CC1 [Example 259, N-[4-[5-chloro-2-(difluoromethoxy)phenyl]-2-[4-(4-methylpiperazine-1-carbonyl)phenyl]thiazol-5-yl]pyrazolo[1,5-a]pyrimidine-3-carboxamide] | 0.93 | – | 0.56 | 13 |
| CN1C[C@@H]2CN(C(=O)Cn3cc(NC(=O)c4cnn5cccnc45)c(-c4cc(Cl)ccc4OC(F)F)n3)C[C@]2(c2ccccc2)C1 [Example 16, N-[1-[2-[(3aR,6aR)-2-methyl-3a-phenyl-3,4,6,6a-tetrahydro-1H-pyrrolo[3,4-c]pyrrol-5-yl]-2-oxo-ethyl]-3-[5-chloro-2-(difluoromethoxy)phenyl]pyrazol-4-yl]pyrazolo[1,5-a]pyrimidine-3-carboxamide] | 0.62 | – | 0.56 | 8.1 |
| O=C(Nc1cn([C@@H]2CNCC[C@H]2O)nc1-c1cc(Cl)ccc1OC(F)F)c1cnn2cccnc12 [Example 360, N-[3-[5-chloro-2-(difluoromethoxy)phenyl]-1-[(3R,4R)-4-hydroxypiperidin-3-yl]-1H-pyrazol-4-yl]pyrazolo[1,5-a]pyrimidine-3-carboxamide] | – | 0.0366 | – | – |
| Cc1cnc2c(C(=O)Nc3cn(CC(=O)N4C[C@H]5CN(C)C[C@H]5C4)nc3-c3cc(Cl)ccc3OC(F)F)cnn2c1 [Example 8, 6-Methyl-pyrazolo[1,5-a]pyrimidine-3-carboxylic acid {3-(5-chloro-2-difluoromethoxy-phenyl)-1-[2-((3aR,6aS)-5-methyl-hexahydro-pyrrolo[3,4-c]pyrrol-2-yl)-2-oxo-ethyl]-1H-pyrazol-4-yl}-amide hydrochloride] | 96.3 | – | 120 | 746 |
| CC(=O)NCCCN1CCC(n2cc(NC(=O)c3cnn4cccnc34)c(-c3cc(Cl)ccc3OC(F)F)n2)CC1 [Example 142, Pyrazolo[1,5-a]pyrimidine-3-carboxylic acid [1-[1-(3-acetylaminopropyl)piperidin-4-yl]-3-(5-chloro-2-difluoromethoxyphenyl)-1H-pyrazol-4-yl]amide hydrochloride] | 1.65 | – | 0.38 | 36.3 |
